According to ChEMBL document CHEMBL6153123, “Discovery of Potent and Brain-Penetrant Bicyclic NLRP3 Inhibitors with Peripheral and Central In Vivo Activity” (J Med Chem, 2025):

How the values were obtained:
[1] = in vitro; details: dog, MDCK-MDR1
[2] = physchem; details: buffer, pH 7.4
[3] = in vivo; details: male, CD1, mouse, brain and plasma, po

Row | Compound | Papp A→B [1] | chromatographic logD [2] | Kp uu [3]
1 | CN1C[C@H](Nc2nnc(-c3ccc(C(F)(F)F)cc3O)c3ccnn23)CC(F)(F)C1 | 13 ×10⁻⁶ cm/s | 3.85 | –
2 | Cc1cc(C(F)(F)F)cc(O)c1-c1nnc(N[C@@H]2CCCN(C)C2)n2nccc12 | 26 ×10⁻⁶ cm/s | 1.73 | 0.056
